# Molecular target: Aldo-keto reductase family 1 member B1 (Homo sapiens, UniProt P15121)
# Assay: Inhibition of human muscle recombinant aldose reductase by spectrophotometry
# Parameters: species or system Muscle tissue
row,SMILES,IC50 [nM]
1,Cc1c(Br)c(O)c(O)c(Br)c1Br,3190
2,O=Cc1c(Br)c(O)c(O)c(Br)c1Br,667
3,Oc1c(O)c(Br)c(Cc2c(Br)c(O)c(O)c(Br)c2Br)c(Br)c1Br,567
4,Oc1cc(Br)c(COCc2c(Br)c(O)c(O)c(Br)c2Br)c(Br)c1O,167
5,Oc1c(Br)cc(Cc2c(Br)c(O)c(O)c(Br)c2Br)c(Br)c1O,638

# Reference: ChEMBL document CHEMBL1158746, “Structures and aldose reductase inhibitory effects of bromophenols from the red alga Symphyocladia latiuscula” (J Nat Prod, 2005)
